From PubChem BioAssay AID248 (DTP/NCI, 2004)
“And” between values parts separate entries of the source, which are not always exact repeats. Identical values can stand only once. Inconclusive results and toxic doses are left out. No stated cut-off is given here; in the data, active means T/C of 150% or more; inactive means T/C below 125%.

Test system: L1210 leukemia ip in BDF1 mice, survival T/C
Assay: NCI In Vivo Anticancer Drug Screen. Data for tumor model L1210 Leukemia (intraperitoneal) in B6D2F1 (BDF1) mice
Details: higher = longer survival
Procedure, shortened: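 Survival endpoint. Drug-treated group vs vehicle group, expressed as T divided by C. Tumor passaged by transplantation.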

[1] = endpoint: mean survival time, dose: 100.0 mg/kg/injection, schedule: Q01DX001 (ip), vehicle: saline
[2] = endpoint: mean survival time, dose: 200.0 mg/kg/injection, schedule: Q01DX001 (ip), vehicle: saline
[3] = endpoint: mean survival time, dose: 400.0 mg/kg/injection, schedule: Q01DX001 (ip), vehicle: saline
[4] = endpoint: mean survival time, dose: 12.5 mg/kg/injection, schedule: Q01DX009 (ip), vehicle: saline with Tween-80
[5] = endpoint: mean survival time, dose: 25.0 mg/kg/injection, schedule: Q01DX009 (ip), vehicle: saline with Tween-80
[6] = endpoint: mean survival time, dose: 50.0 mg/kg/injection, schedule: Q01DX009 (ip), vehicle: saline with Tween-80
[7] = endpoint: mean survival time, dose: 100.0 mg/kg/injection, schedule: Q01DX009 (ip), vehicle: saline
[8] = endpoint: mean survival time, dose: 200.0 mg/kg/injection, schedule: Q01DX009 (ip), vehicle: saline
[9] = endpoint: mean survival time, dose: 400.0 mg/kg/injection, schedule: Q01DX009 (ip), vehicle: saline

Measured: T/C

COc1cc(CCN)ccc1OCc1ccccc1
inactive: endpoint: mean survival time, dose: 25.0 mg/kg/injection, schedule: Q04DX003 (ip), vehicle: Klucel (hydroxypropylcellulose) (HPC) 97 % of control | endpoint: mean survival time, dose: 50.0 mg/kg/injection, schedule: Q04DX003 (ip), vehicle: Klucel (hydroxypropylcellulose) (HPC) 101 % of control | endpoint: mean survival time, dose: 100.0 mg/kg/injection, schedule: Q01DX001 (ip), vehicle: Klucel (hydroxypropylcellulose) (HPC) 96 % of control | endpoint: mean survival time, dose: 100.0 mg/kg/injection, schedule: Q04DX003 (ip), vehicle: Klucel (hydroxypropylcellulose) (HPC) 104 % of control and 105 % of control | endpoint: mean survival time, dose: 200.0 mg/kg/injection, schedule: Q01DX001 (ip), vehicle: Klucel (hydroxypropylcellulose) (HPC) 94 % of control

CN(C)C=NCC1CCCO1 (centres undefined)
inactive: [1] 97 % of control | [2] 90 % of control | [3] 97 % of control

CC(O)CC(=O)NN (centres undefined)
inactive: [1] 98 % of control | [2] 100 % of control | [3] 93 % of control

O=S1(=O)C2CCCC1(Cl)CCC2
inactive: endpoint: mean survival time, dose: 75.0 mg/kg/injection, schedule: Q01DX001 (ip), vehicle: saline 107 % of control | endpoint: mean survival time, dose: 150.0 mg/kg/injection, schedule: Q01DX001 (ip), vehicle: saline 102 % of control | endpoint: mean survival time, dose: 300.0 mg/kg/injection, schedule: Q01DX001 (ip), vehicle: saline 93 % of control

O=[N+]([O-])c1ccc(N/N=C2\C3CC(c4ccccc4)C2C(c2ccccc2)=C3c2ccccc2)c([N+](=O)[O-])c1 (centres undefined)
inactive: [4] 91 % of control | [5] 88 % of control | [6] 96 % of control | endpoint: mean survival time, dose: 200.0 mg/kg/injection, schedule: Q01DX009 (ip), vehicle: saline with Tween-80 89 % of control

CC12CC3CC(C1)CC(C(=O)O)(C3)C2
inactive: [7] 110 % of control | endpoint: mean survival time, dose: 100.0 mg/kg/injection, schedule: Q04DX003 (ip), vehicle: saline 97 % of control | [8] 100 % of control | endpoint: mean survival time, dose: 200.0 mg/kg/injection, schedule: Q04DX003 (ip), vehicle: saline 97 % of control | endpoint: mean survival time, dose: 400.0 mg/kg/injection, schedule: Q04DX003 (ip), vehicle: saline 101 % of control

S=Cc1cccc2c1CCCC2
inactive: [7] 111 % of control | [8] 100 % of control | [9] 97 % of control

CC1(C)N=C(N)N=C(N)N1c1ccc(OCC(=O)Nc2ccc(S(=O)(=O)F)cc2)c(Cl)c1
inactive: endpoint: mean survival time, dose: 50.0 mg/kg/injection, schedule: Q01DX009 (ip), vehicle: carboxymethylcellulose (CMC) 106 % of control and 117 % of control | endpoint: mean survival time, dose: 50.0 mg/kg/injection, schedule: Q01DX009 (ip), vehicle: saline 109 % of control | endpoint: mean survival time, dose: 100.0 mg/kg/injection, schedule: Q01DX009 (ip), vehicle: carboxymethylcellulose (CMC) 114 % of control | endpoint: mean survival time, dose: 400.0 mg/kg/injection, schedule: Q01DX009 (ip), vehicle: carboxymethylcellulose (CMC) 94 % of control | [9] 109 % of control

CCCCNC(=O)n1ncc2cc([N+](=O)[O-])c([N+](=O)[O-])cc21
inactive: [1] 103 % of control | [2] 97 % of control | [3] 101 % of control

NC(=O)NC1CON(C(N)=O)C1=O (centres undefined)
inactive: endpoint: mean survival time, dose: 100.0 mg/kg/injection, schedule: Q04DX002 (ip), vehicle: saline 94 % of control | endpoint: mean survival time, dose: 200.0 mg/kg/injection, schedule: Q04DX002 (ip), vehicle: saline 112 % of control | endpoint: mean survival time, dose: 400.0 mg/kg/injection, schedule: Q04DX002 (ip), vehicle: saline 94 % of control

O=c1[nH]c(=O)c2n[nH]c(C3OCC(O)C3O)c2[nH]1 (centres undefined)
inactive: endpoint: mean survival time, dose: 100.0 mg/kg/injection, schedule: Q01DX005 (ip), vehicle: saline 94 % of control | endpoint: mean survival time, dose: 200.0 mg/kg/injection, schedule: Q01DX005 (ip), vehicle: saline 97 % of control

Clc1ccccc1C[P+](c1ccccc1)(c1ccccc1)c1ccccc1
inactive: endpoint: mean survival time, dose: 12.5 mg/kg/injection, schedule: Q01DX001 (ip), vehicle: saline 92 % of control | endpoint: mean survival time, dose: 25.0 mg/kg/injection, schedule: Q01DX001 (ip), vehicle: saline 106 % of control | endpoint: mean survival time, dose: 50.0 mg/kg/injection, schedule: Q01DX001 (ip), vehicle: saline 100 % of control

CC1(C)N=C(N)N=C(N)N1c1ccc(Cl)c(C(F)(F)F)c1
inactive: endpoint: mean survival time, dose: 8.33 mg/kg/injection, schedule: Q01DX009 (ip), vehicle: saline with Tween-80 115 % of control | endpoint: mean survival time, dose: 8.8 mg/kg/injection, schedule: Q04DX003 (ip), vehicle: saline with Tween-80 107 % of control | [4] 118 % of control | endpoint: mean survival time, dose: 13.3 mg/kg/injection, schedule: Q04DX003 (ip), vehicle: saline with Tween-80 104 % of control | endpoint: mean survival time, dose: 20.0 mg/kg/injection, schedule: Q04DX003 (ip), vehicle: saline with Tween-80 101 % of control | [5] 116 % of control | endpoint: mean survival time, dose: 30.0 mg/kg/injection, schedule: Q04DX003 (ip), vehicle: saline with Tween-80 106 % of control | endpoint: mean survival time, dose: 33.0 mg/kg/injection, schedule: Q01DX009 (ip), vehicle: saline with Tween-80 118 % of control | endpoint: mean survival time, dose: 45.0 mg/kg/injection, schedule: Q04DX003 (ip), vehicle: saline with Tween-80 115 % of control | [6] 98 % of control | endpoint: mean survival time, dose: 100.0 mg/kg/injection, schedule: Q04DX003 (ip), vehicle: saline with Tween-80 108 % of control

CCOC(=O)c1[nH]c(C)c(C(=O)OCC)c1C
inactive: endpoint: mean survival time, dose: 50.0 mg/kg/injection, schedule: Q01DX009 (ip), vehicle: Klucel (hydroxypropylcellulose) (HPC) 95 % of control | endpoint: mean survival time, dose: 100.0 mg/kg/injection, schedule: Q01DX009 (ip), vehicle: Klucel (hydroxypropylcellulose) (HPC) 95 % of control | endpoint: mean survival time, dose: 100.0 mg/kg/injection, schedule: Q04DX002 (ip), vehicle: saline with Tween-80 99 % of control | endpoint: mean survival time, dose: 200.0 mg/kg/injection, schedule: Q01DX009 (ip), vehicle: Klucel (hydroxypropylcellulose) (HPC) 103 % of control | endpoint: mean survival time, dose: 200.0 mg/kg/injection, schedule: Q04DX002 (ip), vehicle: saline with Tween-80 102 % of control | endpoint: mean survival time, dose: 400.0 mg/kg/injection, schedule: Q04DX002 (ip), vehicle: saline with Tween-80 102 % of control | endpoint: median survival time, dose: 10.0 mg/kg/injection, schedule: Q04DX002 (ip), vehicle: Klucel (hydroxypropylcellulose) (HPC) 100 % of control | endpoint: median survival time, dose: 200.0 mg/kg/injection, schedule: Q04DX002 (ip), vehicle: Klucel (hydroxypropylcellulose) (HPC) 89 % of control | endpoint: median survival time, dose: 400.0 mg/kg/injection, schedule: Q04DX002 (ip), vehicle: Klucel (hydroxypropylcellulose) (HPC) 107 % of control

CC1([N+](=O)[O-])COP(=O)(NCc2ccncc2)OC1 (centres undefined)
inactive: endpoint: mean survival time, dose: 50.0 mg/kg/injection, schedule: Q01DX001 (ip), vehicle: carboxymethylcellulose (CMC) 107 % of control | endpoint: mean survival time, dose: 100.0 mg/kg/injection, schedule: Q01DX001 (ip), vehicle: carboxymethylcellulose (CMC) 104 % of control | endpoint: mean survival time, dose: 200.0 mg/kg/injection, schedule: Q01DX001 (ip), vehicle: carboxymethylcellulose (CMC) 104 % of control | endpoint: mean survival time, dose: 400.0 mg/kg/injection, schedule: Q01DX001 (ip), vehicle: carboxymethylcellulose (CMC) 109 % of control

O=C1C=C(N2CC2)C(=O)C=C1N1CC1
inactive: endpoint: mean survival time, dose: 0.62 mg/kg/injection, schedule: Q01DX001 (ip), vehicle: other 105 % of control | endpoint: mean survival time, dose: 1.25 mg/kg/injection, schedule: Q01DX001 (ip), vehicle: other 117 % of control | endpoint: mean survival time, dose: 2.5 mg/kg/injection, schedule: Q01DX001 (ip), vehicle: other 107 % of control
